Experimental data reported in ChEMBL document CHEMBL1201862, “PubChem BioAssay data set” (2004).
Active and inactive are the calls of the source.

Assays:
[1] = target: T1, Ubiquitin-conjugating enzyme E2 N (Homo sapiens, UniProt P61088); assay type: functional;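 note: Dose-response confirmation in a TR-FRET assay detecting UBC13-driven polyubiquitin chain formation, inhibition measured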
T1 sequence (P61088 whole entry): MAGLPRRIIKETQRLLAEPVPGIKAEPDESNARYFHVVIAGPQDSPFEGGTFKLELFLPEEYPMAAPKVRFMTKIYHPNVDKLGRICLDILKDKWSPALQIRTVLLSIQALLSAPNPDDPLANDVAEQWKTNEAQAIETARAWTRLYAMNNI

[2] = cells; assay type: functional, cell-based
[3] = cells; assay type: functional, cell-based; remark: listed apart in the source
[4] = HEp-2 cell cytotoxicity, dose response, cytotoxicity control for RSV inhibitor project, HTS (AID 2410); assay type: functional; settings: human respiratory syncytial virus
[5] = target: Nonstructural protein 1 (Influenza A virus, UniProt Q194T2); assay type: functional, Influenza A virus (A/California/07/2009(H1N1))
[6] = test system: Vero; experiment: cells; assay type: functional; settings: Chlorocebus sabaeus
[7] = target: Large T antigen (Simian virus 40, UniProt P03070); assay type: functional, Betapolyomavirus macacae;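 note: Confirmatory-stage PubChem screen for compounds that inhibit SV40 T antigen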
[8] = target: FAD-linked sulfhydryl oxidase ALR (Homo sapiens, UniProt P55789); experiment: inhibitors of human ALR sulfhydryl oxidase, dose response, biochemical, H2O2 detection, luminescence, cherry-pick (AID 493248)
[9] = target: T2, High affinity choline transporter 1 (Homo sapiens, UniProt Q9GZV3); experiment: CHT inhibitors, dose response, cell-based, 5-point CRC, membrane potential dye (AID 504840); assay type: functional
T2 sequence (Q9GZV3 whole entry): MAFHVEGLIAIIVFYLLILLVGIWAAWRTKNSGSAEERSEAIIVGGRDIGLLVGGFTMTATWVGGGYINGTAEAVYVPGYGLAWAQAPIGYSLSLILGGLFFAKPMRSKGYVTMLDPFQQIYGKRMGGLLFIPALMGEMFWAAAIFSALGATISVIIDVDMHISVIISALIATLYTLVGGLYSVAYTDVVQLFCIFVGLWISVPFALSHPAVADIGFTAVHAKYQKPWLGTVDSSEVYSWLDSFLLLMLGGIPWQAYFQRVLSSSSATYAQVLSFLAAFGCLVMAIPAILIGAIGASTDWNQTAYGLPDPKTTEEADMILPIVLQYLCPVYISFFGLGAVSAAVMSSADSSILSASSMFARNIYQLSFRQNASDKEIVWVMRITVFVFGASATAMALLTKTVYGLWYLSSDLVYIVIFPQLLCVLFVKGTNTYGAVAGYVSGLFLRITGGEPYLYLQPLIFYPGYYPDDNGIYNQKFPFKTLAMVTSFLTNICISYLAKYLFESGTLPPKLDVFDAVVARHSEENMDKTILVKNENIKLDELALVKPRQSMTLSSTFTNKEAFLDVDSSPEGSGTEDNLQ

[10] = target: Trypsin (Sus scrofa, UniProt P00761); experiment: porcine trypsin inhibitors, dose response, selectivity assay for Rce1 protease inhibitor project, biochemical, quenched peptide fluorescence, cherry-pick (AID 488789)
[11] = target: T3, Rac GTPase-activating protein 1 (Homo sapiens, UniProt Q9H0H5); experiment: MgcRacGAP GTPase-activating activity inhibitors, confirmation, biochemical, ADP Hunter fluorescence, primary and confirmatory (AID 624330); assay type: functional
T3 sequence (Q9H0H5 whole entry): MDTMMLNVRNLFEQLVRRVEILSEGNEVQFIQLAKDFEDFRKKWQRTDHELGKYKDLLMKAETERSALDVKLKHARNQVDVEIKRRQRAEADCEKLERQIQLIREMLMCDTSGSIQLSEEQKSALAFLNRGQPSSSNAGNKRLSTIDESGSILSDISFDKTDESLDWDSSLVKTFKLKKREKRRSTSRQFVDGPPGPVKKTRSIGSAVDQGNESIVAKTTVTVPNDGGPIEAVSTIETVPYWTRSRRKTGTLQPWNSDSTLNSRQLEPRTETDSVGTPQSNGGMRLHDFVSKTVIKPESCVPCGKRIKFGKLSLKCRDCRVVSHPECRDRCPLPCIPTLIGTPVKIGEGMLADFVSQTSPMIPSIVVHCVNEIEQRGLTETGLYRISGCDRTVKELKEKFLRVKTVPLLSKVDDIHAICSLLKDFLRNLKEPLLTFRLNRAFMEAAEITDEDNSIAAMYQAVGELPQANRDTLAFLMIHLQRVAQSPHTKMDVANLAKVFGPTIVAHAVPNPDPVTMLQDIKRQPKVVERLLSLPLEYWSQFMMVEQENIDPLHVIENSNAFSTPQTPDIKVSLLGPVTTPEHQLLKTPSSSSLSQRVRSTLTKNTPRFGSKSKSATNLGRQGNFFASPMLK

[12] = target: Genome polyprotein (dengue virus type 2, UniProt P29990); experiment: Dengue-2 NS5 methyltransferase inhibitors, primary screen, biochemical, confirmation dose response (AID 588689); assay type: functional
[13] = THP-1 cell cytotoxicity, dose response, cytotoxicity control for non-replicating M. tuberculosis project (AID 489025); assay type: functional
[14] = test system: H4; experiment: Luminescence Cell-Based Dose Response HTS to Identify Activators of 5'UTR Stem-Loop Driven Prion Protein mRNA Translation in H4 Neuroglioblastoma Cells. [Related pubchem assays: 1829 (Project Summary), 1814 (Primary HTS)]; assay type: functional; settings: Homo sapiens
[15] = Luminescence Cell-Based Dose Confirmation HTS to Identify Activators of 5'UTR Stem-Loop Driven Alpha-Synuclein mRNA Translation in H4 Neuroglioblastoma Cells. [Related pubchem assays: 1829 (Project Summary), 1814 (Primary HTS)]; assay type: functional
[16] = Luminescence Cell-Based Dose Response HTS to Identify Activators of Luciferase Translation or Activity in H4 […] Cells. [Related pubchem assays: 1829 (Project Summary), 1814 (Primary HTS)]; assay type: functional
[17] = target: T4, Protein skinhead-1 (Caenorhabditis elegans, UniProt P34707); assay type: functional
T4 sequence (P34707 whole entry): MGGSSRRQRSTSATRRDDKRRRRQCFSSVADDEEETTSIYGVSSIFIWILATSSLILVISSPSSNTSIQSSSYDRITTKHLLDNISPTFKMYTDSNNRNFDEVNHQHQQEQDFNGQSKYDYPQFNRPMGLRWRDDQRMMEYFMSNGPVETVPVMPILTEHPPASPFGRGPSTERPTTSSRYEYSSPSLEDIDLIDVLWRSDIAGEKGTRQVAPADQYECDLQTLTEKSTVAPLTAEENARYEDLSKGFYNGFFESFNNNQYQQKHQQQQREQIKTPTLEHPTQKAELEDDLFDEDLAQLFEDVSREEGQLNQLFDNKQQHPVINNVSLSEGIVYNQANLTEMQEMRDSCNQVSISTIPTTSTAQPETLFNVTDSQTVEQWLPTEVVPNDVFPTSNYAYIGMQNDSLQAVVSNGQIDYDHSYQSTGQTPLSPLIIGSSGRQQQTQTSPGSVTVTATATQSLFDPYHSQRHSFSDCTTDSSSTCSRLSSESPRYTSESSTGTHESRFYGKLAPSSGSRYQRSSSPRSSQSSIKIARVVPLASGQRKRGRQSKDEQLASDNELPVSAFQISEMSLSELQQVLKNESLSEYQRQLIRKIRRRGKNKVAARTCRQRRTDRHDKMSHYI

[18] = inhibitors of clade B AD8 Env fusion, dose response, cell-based, cherry-pick (AID 652062); assay type: functional;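 note: luciferase signal from cell-cell fusion driven by HIV-1 clade B AD8 Env; potency is for inhibitors of fusion seen as a drop in luminescence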
[19] = Luminescence Cell-Based Dose Confirmation HTS to Identify Inhibitors of Platelet Dense Granule Release. [Related pubchem assays: 1663 (Primary HTS), 1678 (Summary of Project)]; assay type: functional
[20] = test system: H9c2; experiment: cells; assay type: functional, cell-based; settings: Rattus norvegicus, H9c2, Myocardium;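 note: confirmatory concentration-response retest of ultra-high-throughput screening hits for modulation of myocardial damage; cell death induced by hydrogen peroxide oxidative stress; compound pretreatment for 60 min then peroxide exposure for 2 h; potency is for protecting the cells against peroxide damage rather than for killing them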
[21] = target: Luciferin 4-monooxygenase (Photinus pyralis, UniProt P08659); experiment: firefly luciferase enzyme inhibitors, dose response, biochemical, luminescence (AID 1891)
[22] = test system: INS1; experiment: beta cell apoptosis inhibitors, cytokine rescue, dose response, luminescence, retest (AID 449756); assay type: functional, cell-based; settings: Rattus norvegicus;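 note: cell death triggered by IL-1 beta plus TNF-alpha plus IFN-gamma mixture; protective hits raise ATP signal compared with cytokine alone wells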
[23] = target: T5, Streptokinase A (Streptococcus pyogenes serotype M1, UniProt P10520); experiment: S. pyogenes streptokinase expression inhibitors, potency, dose response, plasminogen activation absorbance, OD405 (AID 1914); assay type: functional, Streptococcus pyogenes M1 GAS;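 note: secreted streptokinase activity via plasminogen activation per viability signal from cell pellet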
T5 sequence (P10520 whole entry): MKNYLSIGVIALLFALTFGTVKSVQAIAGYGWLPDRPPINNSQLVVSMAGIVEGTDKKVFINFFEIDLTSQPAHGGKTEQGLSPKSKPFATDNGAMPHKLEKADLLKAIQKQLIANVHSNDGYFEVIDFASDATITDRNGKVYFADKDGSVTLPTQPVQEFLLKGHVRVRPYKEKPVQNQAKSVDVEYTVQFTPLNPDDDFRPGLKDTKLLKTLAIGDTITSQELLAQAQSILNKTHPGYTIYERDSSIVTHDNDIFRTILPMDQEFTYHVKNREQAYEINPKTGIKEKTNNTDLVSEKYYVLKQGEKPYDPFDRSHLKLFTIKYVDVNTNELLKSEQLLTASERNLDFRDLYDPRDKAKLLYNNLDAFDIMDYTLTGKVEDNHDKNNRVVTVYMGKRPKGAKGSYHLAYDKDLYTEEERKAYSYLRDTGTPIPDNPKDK

Large T antigen, sequence (P03070 whole entry): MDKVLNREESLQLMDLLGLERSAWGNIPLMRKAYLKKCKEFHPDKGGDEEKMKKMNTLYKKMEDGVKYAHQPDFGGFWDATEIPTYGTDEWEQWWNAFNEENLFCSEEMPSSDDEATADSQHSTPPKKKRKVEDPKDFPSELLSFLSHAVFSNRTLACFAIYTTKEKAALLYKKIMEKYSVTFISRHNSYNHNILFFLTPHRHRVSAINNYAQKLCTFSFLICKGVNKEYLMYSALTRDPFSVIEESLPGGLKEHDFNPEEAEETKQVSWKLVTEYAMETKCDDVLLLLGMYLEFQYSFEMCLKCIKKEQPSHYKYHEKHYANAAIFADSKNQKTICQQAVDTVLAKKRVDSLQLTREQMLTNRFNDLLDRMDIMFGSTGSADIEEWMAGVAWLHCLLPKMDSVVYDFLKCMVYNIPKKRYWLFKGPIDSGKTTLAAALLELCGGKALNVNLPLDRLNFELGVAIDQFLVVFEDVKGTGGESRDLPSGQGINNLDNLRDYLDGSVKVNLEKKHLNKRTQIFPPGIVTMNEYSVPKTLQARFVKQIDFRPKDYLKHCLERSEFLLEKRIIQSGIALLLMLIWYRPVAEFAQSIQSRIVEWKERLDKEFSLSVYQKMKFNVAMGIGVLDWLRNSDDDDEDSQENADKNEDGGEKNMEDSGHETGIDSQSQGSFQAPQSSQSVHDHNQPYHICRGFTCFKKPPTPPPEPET
Genome polyprotein, sequence (P29990 2492-3391 limits assumed): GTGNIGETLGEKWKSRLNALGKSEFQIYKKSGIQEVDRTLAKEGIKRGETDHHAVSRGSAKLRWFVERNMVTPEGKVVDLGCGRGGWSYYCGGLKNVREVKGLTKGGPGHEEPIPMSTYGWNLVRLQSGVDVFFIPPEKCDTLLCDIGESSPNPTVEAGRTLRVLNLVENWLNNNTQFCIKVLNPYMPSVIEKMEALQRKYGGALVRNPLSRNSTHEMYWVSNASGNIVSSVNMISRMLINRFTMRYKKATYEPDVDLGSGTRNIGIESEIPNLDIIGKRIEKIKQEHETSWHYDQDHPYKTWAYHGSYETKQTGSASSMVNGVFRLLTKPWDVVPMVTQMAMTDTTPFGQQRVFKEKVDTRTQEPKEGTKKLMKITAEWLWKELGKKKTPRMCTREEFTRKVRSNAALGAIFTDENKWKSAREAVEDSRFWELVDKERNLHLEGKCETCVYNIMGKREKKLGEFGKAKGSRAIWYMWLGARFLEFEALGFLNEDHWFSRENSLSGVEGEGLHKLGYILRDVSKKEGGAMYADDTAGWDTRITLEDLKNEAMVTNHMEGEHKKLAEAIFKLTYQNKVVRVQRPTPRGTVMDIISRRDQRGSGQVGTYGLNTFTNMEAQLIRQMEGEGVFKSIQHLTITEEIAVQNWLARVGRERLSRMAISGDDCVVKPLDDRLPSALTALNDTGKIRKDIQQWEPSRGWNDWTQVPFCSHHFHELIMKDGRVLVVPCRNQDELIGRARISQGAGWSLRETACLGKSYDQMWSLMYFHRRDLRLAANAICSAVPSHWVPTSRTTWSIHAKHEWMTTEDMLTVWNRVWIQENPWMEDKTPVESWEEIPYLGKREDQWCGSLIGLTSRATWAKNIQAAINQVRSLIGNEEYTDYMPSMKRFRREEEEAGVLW
FAD-linked sulfhydryl oxidase ALR, sequence (P55789 whole entry): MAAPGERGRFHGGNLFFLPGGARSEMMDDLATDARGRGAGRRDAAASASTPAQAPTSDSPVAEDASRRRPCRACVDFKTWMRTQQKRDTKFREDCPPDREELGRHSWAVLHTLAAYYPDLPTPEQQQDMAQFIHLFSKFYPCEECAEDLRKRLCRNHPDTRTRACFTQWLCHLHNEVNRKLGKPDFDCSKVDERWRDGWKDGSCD
Nonstructural protein 1, sequence (Q194T2 whole entry): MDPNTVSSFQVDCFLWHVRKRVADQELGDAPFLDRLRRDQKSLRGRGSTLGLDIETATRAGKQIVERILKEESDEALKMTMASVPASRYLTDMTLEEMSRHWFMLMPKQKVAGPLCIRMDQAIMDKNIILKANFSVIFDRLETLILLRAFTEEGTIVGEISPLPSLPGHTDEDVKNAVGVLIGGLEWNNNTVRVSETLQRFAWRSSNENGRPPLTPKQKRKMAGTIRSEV
Trypsin, sequence (P00761 whole entry): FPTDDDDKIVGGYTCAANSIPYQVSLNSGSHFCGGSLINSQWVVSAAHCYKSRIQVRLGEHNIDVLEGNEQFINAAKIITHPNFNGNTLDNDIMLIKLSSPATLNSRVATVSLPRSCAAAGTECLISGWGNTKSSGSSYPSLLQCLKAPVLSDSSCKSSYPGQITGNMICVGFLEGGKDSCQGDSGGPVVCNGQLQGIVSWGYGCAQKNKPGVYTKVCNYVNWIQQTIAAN
Luciferin 4-monooxygenase, sequence (P08659 whole entry): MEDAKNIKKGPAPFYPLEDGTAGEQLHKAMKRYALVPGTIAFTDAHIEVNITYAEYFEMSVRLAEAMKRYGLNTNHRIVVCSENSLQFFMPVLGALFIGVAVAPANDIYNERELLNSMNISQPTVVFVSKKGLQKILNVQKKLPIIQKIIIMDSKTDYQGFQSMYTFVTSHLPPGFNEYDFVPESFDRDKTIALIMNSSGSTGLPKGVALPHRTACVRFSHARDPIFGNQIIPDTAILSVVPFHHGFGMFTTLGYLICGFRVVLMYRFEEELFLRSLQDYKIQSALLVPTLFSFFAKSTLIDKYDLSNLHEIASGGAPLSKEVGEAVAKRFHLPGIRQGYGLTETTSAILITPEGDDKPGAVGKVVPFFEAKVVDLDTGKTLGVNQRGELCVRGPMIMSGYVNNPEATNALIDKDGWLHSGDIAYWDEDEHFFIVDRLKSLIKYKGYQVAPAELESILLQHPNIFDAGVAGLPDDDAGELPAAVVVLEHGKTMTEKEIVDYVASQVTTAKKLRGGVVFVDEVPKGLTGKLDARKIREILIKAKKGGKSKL

## CCC[C@@H](CN1CCC[C@H]1CN1C(N)=NC[C@H]1CC(C)C)N1C[C@@H]([C@H](C)CC)N(CCCC2CCCC2)C1=N
[1]
  IC50: > 20 µM (inactive)

## CCOc1nc(Nc2ccc(OC)cc2)nc(OCC)n1
[2]
  EC50: > 350 µM (not active)
[3]
  EC50: > 350 µM (not active)

## CCn1ncc(CN2CCCC(C(=O)Nc3cccc(-c4cc5ccccc5[nH]4)c3)C2)c1C (stereo not drawn)
[4]
  CC50: 16.1 µM (active)
[5]
  IC50: > 100 µM (active)

## CCOC(=O)c1cnc(SCc2ccc(Cl)c(Cl)c2)nc1N1CC1
[6]
  CC50: > 25 µM (active)

## CC(C)(C)C1=CC(=Nc2ccccc2N)C=C(C(C)(C)C)C1=O
[5]
  IC50: 10.9 µM (active)

## CCn1cnc2cc(NCc3ccc(N(C)C)cc3)ccc21
[7]
  IC50: 15.8 µM (active)
[8]
  AC50: 5.86 µM (active)

## CN1Cc2sc(N)c(C#N)c2CC1(C)C
[9]
  IC50: 22.9 µM (active)

## COc1ccccc1N1CCN(C(=O)c2coc(=O)c(Br)c2)CC1
[10]
  AC50: 9.18 µM (active)

## COc1ccc(C(=O)NC(Cc2ccc(OC(=O)c3ccc(OC)cc3)cc2)C(=O)O)cc1 (stereo not drawn)
[9]
  IC50: 9.12 µM (active)

## COC(=O)c1ccccc1NC(=O)COC(=O)c1ccccc1N=Nc1ccc(N(C)C)cc1
[5]
  IC50: 21.4 µM (active)

## Cc1ccccc1N1C(=O)NC(=O)/C(=C\c2cnn(-c3ccccc3)c2)C1=O
[11]
  IC50: 118 µM (active)
[7]
  IC50: 44.9 µM (active)
[12]
  IC50: > 100 µM (active)

## O=C(CCNC(=O)Cn1ccc2ccccc2c1=O)NCCN1CCN(c2ccccc2F)CC1
[1]
  IC50: > 20 µM (inactive)

## Cc1ccc(C2=NOC(=O)/C2=C\c2ccccc2)cc1
[2]
  EC50: > 350 µM (not active)
[3]
  EC50: > 350 µM (not active)

## Fc1ccccc1N=C(S)Nc1ccc(Br)cc1
[2]
  EC50: > 350 µM (not active)
[3]
  EC50: 169 µM (active)

## CN(C)c1ccc(NC(=O)CN2CCC(O)(c3ccccc3)CC2)cc1
[7]
  IC50: 7.29 µM (active)

## CC1CC(C)(C)CC2(C1)NC(=O)N(CC(=O)Nc1ccc3[nH]c(O)nc3c1)C2=O (stereo not drawn)
[1]
  IC50: > 20 µM (inactive)

## CCN(CC)CCN1C(=O)C(O)=C(C(=O)c2ccc(C)cc2)C1c1cccnc1 (stereo not drawn)
[7]
  IC50: 18.9 µM (active)

## Cn1c(-c2cccc([N+](=O)[O-])c2)cnc1NCc1cccc(F)c1
[13]
  CC50: > 40 µM (active)
[8]
  AC50: 1.92 µM (active)

## O=[N+]([O-])c1ccccc1NCCOc1ccccc1
[14]
  EC50: 5.5 µM (active)
[15]
  EC50: 23.6 µM (active)
[16]
  EC50: 24 µM (active)
[5]
  IC50: > 100 µM (active)
[17]
  IC50: 96.3 µM (inactive)

## CCCNC(=O)C[C@H]1C[C@H]2c3cc(NC(=O)CN(C)C)ccc3O[C@H]2[C@@H](CO)O1
[18]
  AC50: 38.6 µM (active)

## COC(=O)c1ccc(-n2cncn2)c([N+](=O)[O-])c1
[2]
  EC50: > 350 µM (not active)
[3]
  EC50: > 350 µM (not active)

## CCOC(=O)N1CCC(N2C(=O)c3ccccc3C2Nc2cc(OC)c(OC)c(OC)c2)CC1 (stereo not drawn)
[19]
  EC50: 94.3 µM (active)
[20]
  IC50: > 79 µM (inactive)
[21]
  EC50: > 112 µM (not active)

## CCN(CC)c1ccc(N=C2C(=O)Nc3ccccc32)cc1
[5]
  IC50: 14.3 µM (active)
[12]
  IC50: > 100 µM (active)
[8]
  AC50: 2.06 µM (active)
[22]
  AC50: 20.2 µM (active)

## O=C(NCCCn1ccnc1)c1cn(-c2ccccc2)nc1-c1ccc(F)cc1
[9]
  IC50: 11.5 µM (active)

## O=C1ON=C(c2ccccc2)/C1=C/c1ccc(OS(=O)(=O)c2ccccc2)cc1
[7]
  IC50: 67.3 µM (active)
[12]
  IC50: 32.3 µM (active)

## COc1cccc(C2CC(c3cccs3)=NN2C(=O)CSc2nc3c(cnn3-c3ccc(F)cc3)c(=O)[nH]2)c1OC (stereo not drawn)
[10]
  AC50: 3.95 µM (active)
[23]
  EC50: > 50 µM (not active)

## NC(=O)C1CCCN(Cc2c(C(=O)N3CCc4ccccc4C3)nc3ccc(Cl)cn23)C1 (stereo not drawn)
[2]
  EC50: > 350 µM (not active)
[3]
  EC50: > 350 µM (not active)
